Molecules are shown by their SMILES.

The experiment deals with T1, histamine H3 receptor (Homo sapiens, UniProt Q9Y5N1).
T1 construct: expressed in transfected cells; host or cells: CHO K1 cells (pSwitch/pGene GeneSwitch system, mifepristone-induced), clone 3H3; membranes
T1 sequence (Q9Y5N1 whole entry): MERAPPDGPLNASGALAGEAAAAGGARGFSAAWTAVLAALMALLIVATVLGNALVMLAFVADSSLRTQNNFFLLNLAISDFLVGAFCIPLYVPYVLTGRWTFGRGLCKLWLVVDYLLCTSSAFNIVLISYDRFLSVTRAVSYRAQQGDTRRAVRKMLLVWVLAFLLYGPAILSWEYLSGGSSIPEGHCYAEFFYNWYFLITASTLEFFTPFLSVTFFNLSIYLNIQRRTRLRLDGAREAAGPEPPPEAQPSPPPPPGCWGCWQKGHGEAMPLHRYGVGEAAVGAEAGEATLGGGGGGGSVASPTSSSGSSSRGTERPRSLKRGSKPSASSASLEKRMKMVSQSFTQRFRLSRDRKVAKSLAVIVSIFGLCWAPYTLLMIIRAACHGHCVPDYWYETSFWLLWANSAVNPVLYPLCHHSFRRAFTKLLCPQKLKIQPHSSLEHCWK
Briefly: Histamine H3 functional antagonist assay ([35S]-GTPγS SPA on membranes of H3 cells). It is filed as biochemical. The settings on record: membrane prepared from cultured H3 cells (CHO K1, human H3); histamine at EC80; averages of a number of experiments; read-out: functional pKi (fpKi), H3 functional antagonist assay (converted). The text has this: A membrane preparation containing histamine H3 receptors may be prepared in accordance with the following procedures:
(i) Generation of Histamine H3 Cell Line
DNA encoding the human histamine H3 gene (Huvar, A. et al. (1999) Mol. Pharmacol. 55(6), 1101-1107) was cloned into a holding vector, pcDNA3.1 TOPO (InVitrogen) and its cDNA was isolated from this vector by restriction digestion of plasmid DNA with the enzymes BamH1 and Not-1 and ligated into the inducible expression vector pGene (InVitrogen) digested with the same enzymes. The GeneSwitch™ system (a system where in transgene expression is switched off in the absence of an inducer and switched on in the presence of an inducer) was performed as described in U.S. Pat. Nos. 5,364,791; 5,874,534; and 5,935,934. Ligated DNA was transformed into competent DH5α E. coli host bacterial cells and plated onto Luria Broth (LB) agar containing Zeocin™ (an antibiotic which allows the selection of cells expressing the sh ble gene which is present on pGene and pSwitch) at 50 μg ml^−1. Colonies containing the re-ligated plasmid were identified by restriction analysis. DNA for transfection into mammalian cells was prepared from 250 ml cultures of the host bacterium containing the pGeneH3 plasmid and isolated using a DNA preparation kit (Qiagen Midi-Prep) as per manufacturers guidelines (Qiagen). CHO K1 cells previously transfected with the pSwitch regulatory plasmid (InVitrogen) were seeded at 2×10e6 cells per T75 flask in Complete Medium, containing Hams F12 (GIBCOBRL, Life Technologies) medium supplemented with 10% v/v dialysed foetal bovine serum, L-glutamine, and hygromycin (100 μg ml^−1), 24 hours prior to use. Plasmid DNA was transfected into the cells using Lipofectamine plus according to the manufacturers guidelines (InVitrogen). 48 hours post transfection cells were placed into complete medium supplemented with 500 μg ml^−1 Zeocin™.
10-14 days post selection 10 nM Mifepristone (InVitrogen), was added to the culture medium to induce the expression of the receptor. 18 hours post induction cells were detached from the flask using ethylenediamine tetra-acetic acid (EDTA; 1:5000; InVitrogen), following several washes with phosphate buffered saline pH 7.4 and resuspended in Sorting Medium containing Minimum Essential Medium (MEM), without phenol red, and supplemented with Earles salts and 3% Foetal Clone II (Hyclone). Approximately 1×10e7 cells were examined for receptor expression by staining with a rabbit polyclonal antibody, 4a, raised against the N-terminal domain of the histamine H3 receptor, incubated on ice for 60 minutes, followed by two washes in sorting medium. Receptor bound antibody was detected by incubation of the cells for 60 minutes on ice with a goat anti rabbit antibody, conjugated with Alexa 488 fluorescence marker (Molecular Probes). Following two further washes with Sorting Medium, cells were filtered through a 50 μm Filcon™ (BD Biosciences) and then analysed on a FACS Vantage SE Flow Cytometer fitted with an Automatic Cell Deposition Unit. Control cells were non-induced cells treated in a similar manner. Positively stained cells were sorted as single cells into 96-well plates, containing Complete Medium containing 500 μg ml^−1 Zeocin™ and allowed to expand before reanalysis for receptor expression via antibody and ligand binding studies. One clone, 3H3, was selected for membrane preparation.
(ii) Membrane Preparation from Cultured Cells
All steps of the protocol are carried out at 4° C. and with pre-cooled reagents. The cell pellet is resuspended in 10 volumes of homogenisation buffer (50 mM N-2-hydroxyethylpiperazine-N′-2-ethanesulfonic acid (HEPES), 1 mM ethylenediamine tetra-acetic acid (EDTA), pH 7.4 with KOH, supplemented with 10e-6M leupeptin (acetyl-leucyl-leucyl-arginal; Sigma L2884), 25 μg/ml bacitracin (Sigma B0125), 1 mM phenylmethylsulfonyl fluoride (PMSF) and 2×10e-6M pepstain A (Sigma)). […]
On the technique in general: GTPγS resists hydrolysis and so accumulates on activated G proteins.
`NC(=O)c1ccc(Cc2ccc3c(c2)CCN(C2CCC2)CC3)cn1` [Example E27, 5-[(3-Cyclobutyl-2,3,4,5-tetrahydro-1H-3-benzazepin-7-yl)methyl]-2-pyridinecarboxamide]: the Ki is less than 3.16 nM.

For the compound `CC(C)NC(=O)c1cnc(Cc2ccc3c(c2)CCN(C2CCC2)CC3)cn1` [Example E21, 5-[(3-Cyclobutyl-2,3,4,5-tetrahydro-1H-3-benzazepin-7-yl)methyl]-N-(1-methylethyl)-2-pyrazinecarboxamide], the Ki was less than 3.16 nM.

For `CCNC(=O)c1ccc(Cc2ccc3c(c2)CCN(C2CCC2)CC3)cc1` [Example E48, 4-[(3-cyclobutyl-2,3,4,5-tetrahydro-1H-3-benzazepin-7-yl)methyl]-N-ethylbenzamide], the Ki is less than 3.16 nM.

For the compound `O=C(c1cnc(Cc2ccc3c(c2)CCN(C2CCC2)CC3)cn1)N1CCCC1` [Example E20, 3-Cyclobutyl-7-{[5-(1-pyrrolidinylcarbonyl)-2-pyrazinyl]methyl}-2,3,4,5-tetrahydro-1H-3-benzazepine], the Ki is less than 3.16 nM.

`NC(=O)c1ccc(Cc2ccc3c(c2)CCN(C2CCC2)CC3)nc1` [Example E44, 6-[(3-cyclobutyl-2,3,4,5-tetrahydro-1H-3-benzazepin-7-yl)methyl]-3-pyridinecarboxamide]: the Ki was less than 3.16 nM.

For `O=C1CCCN1c1ccc(Cc2ccc3c(c2)CCN(C2CCCC2)CC3)cc1` [Example E36, 1-{4-[(3-Cyclopentyl-2,3,4,5-tetrahydro-1H-3-benzazepin-7-yl)methyl]phenyl}-2-pyrrolidinone], the Ki was less than 3.16 nM.

On to `O=C1CCCN1c1ccc(Cc2ccc3c(c2)CCN(C2CCCC2)CC3)cn1` [Example E37, 1-{5-[(3-cyclopentyl-2,3,4,5-tetrahydro-1H-3-benzazepin-7-yl)methyl]-2-pyridinyl}-2-pyrrolidinone], for which the Ki is less than 3.16 nM.

In the case of `CN(C)C(=O)c1cnc(Cc2ccc3c(c2)CCN(C2CCC2)CC3)cn1` [Example E22, 5-[(3-Cyclobutyl-2,3,4,5-tetrahydro-1H-3-benzazepin-7-yl)methyl]-N,N-dimethyl-2-pyrazinecarboxamide], the Ki was less than 3.16 nM.

Regarding `O=C1OCCN1c1ccc(Cc2ccc3c(c2)CCN(C2CCC2)CC3)cn1` [Example E39, 3-{5-[(3-Cyclobutyl-2,3,4,5-tetrahydro-1H-3-benzazepin-7-yl)methyl]-2-pyridinyl}-1,3-oxazolidin-2-one], the Ki is less than 3.16 nM.

Regarding `CC(C)NC(=O)c1ccc(Cc2ccc3c(c2)CCN(C2CCC2)CC3)cn1` [Example E53, 5-[(3-cyclobutyl-2,3,4,5-tetrahydro-1H-3-benzazepin-7-yl)methyl]-N-(1-methylethyl)-2-pyridinecarboxamide], the Ki is less than 3.16 nM.

Take `CN(C)C(=O)c1ccc(Cc2ccc3c(c2)CCN(C2CCC2)CC3)cc1` [Example E17, 4-[(3-Cyclobutyl-2,3,4,5-tetrahydro-1H-3-benzazepin-7-yl)methyl]-N,N-dimethylbenzamide]: the Ki is less than 3.16 nM.

Regarding `O=C(c1ccc(Cc2ccc3c(c2)CCN(C2CCC2)CC3)cc1)N1CCOCC1` [Example E19, 3-Cyclobutyl-7-{[4-(4-morpholinylcarbonyl)phenyl]methyl}-2,3,4,5-tetrahydro-1H-3-benzazepine], the Ki was less than 3.16 nM.

For the compound `Cc1noc(-c2ccc(Cc3ccc4c(c3)CCN(C3CCC3)CC4)cc2)n1` [Example E13, 3-Cyclobutyl-7-{[4-(3-methyl-1,2,4-oxadiazol-5-yl)phenyl]methyl}-2,3,4,5-tetrahydro-1H-3-benzazepine], the Ki was less than 0.316 nM.

As for `O=c1nc(-c2ccc(Cc3ccc4c(c3)CCN(C3CCC3)CC4)cc2)[nH]o1` [Example E58, 3-{4-[(3-cyclobutyl-2,3,4,5-tetrahydro-1H-3-benzazepin-7-yl)methyl]Phenyl}-1,2,4-oxadiazol-5(2H)-one], the Ki is less than 3.16 nM.

In the case of `CC(=O)Nc1cnc(Cc2ccc3c(c2)CCN(C2CCC2)CC3)cn1` [Example E32, N-{5-[(3-Cyclobutyl-2,3,4,5-tetrahydro-1H-3-benzazepin-7-yl)methyl]-2-pyrazinyl}acetamide], the Ki was less than 3.16 nM.

For the compound `c1cc(-c2csnn2)ccc1Cc1ccc2c(c1)CCN(C1CCC1)CC2` [Example E57, 3-cyclobutyl-7-{[4-(1,2,3-thiadiazol-4-yl)phenyl]methyl}-2,3,4,5-tetrahydro-1H-3-benzazepine], the Ki was less than 0.316 nM.

With `O=C(NC1CCOCC1)c1ccc(Cc2ccc3c(c2)CCN(C2CCC2)CC3)cc1` [Example E50, 4-[(3-cyclobutyl-2,3,4,5-tetrahydro-1H-3-benzazepin-7-yl)methyl]-N-(tetrahydro-2H-pyran-4-yl)benzamide], the Ki was less than 3.16 nM.

In the case of `N#CCNC(=O)c1cnc(Cc2ccc3c(c2)CCN(C2CCC2)CC3)cn1` [Example E24, N-(Cyanomethyl)-5-[(3-cyclobutyl-2,3,4,5-tetrahydro-1H-3-benzazepin-7-yl)methyl]-2-pyrazinecarboxamide], the Ki was less than 3.16 nM.

For `O=C1CCCN1c1cnc(Cc2ccc3c(c2)CCN(C2CCC2)CC3)cn1` [Example E31, 1-{5-[(3-Cyclobutyl-2,3,4,5-tetrahydro-1H-3-benzazepin-7-yl)methyl]-2-pyrazinyl}-2-pyrrolidinone], the Ki was less than 0.316 nM.

`Cc1noc(-c2ccc(Cc3ccc4c(c3)CCN(C3CCC3)CC4)cn2)n1` [Example E14, 3-Cyclobutyl-7-{[6-(3-methyl-1,2,4-oxadiazol-5-yl)-3-pyridinyl]methyl}-2,3,4,5-tetrahydro-1H-3-benzazepine]: the Ki is less than 3.16 nM.

On to `O=C(NCC(F)(F)F)c1cnc(Cc2ccc3c(c2)CCN(C2CCC2)CC3)cn1` [Example E23, 5-[(3-Cyclobutyl-2,3,4,5-tetrahydro-1H-3-benzazepin-7-yl)methyl]-N-(2,2,2-trifluoroethyl)-2-pyrazinecarboxamide], for which the Ki was less than 3.16 nM.

Turning to `CN1CCN(c2ccc(Cc3ccc4c(c3)CCN(C3CCC3)CC4)cn2)C1=O` [Example E40, 1-{5-[(3-Cyclobutyl-2,3,4,5-tetrahydro-1H-3-benzazepin-7-yl)methyl]-2-pyridinyl}-3-methyl-2-imidazolidinone], the Ki was less than 3.16 nM.

Turning to `O=C(c1ccc(Cc2ccc3c(c2)CCN(C2CCC2)CC3)cc1)N1CCCC1` [Example E49, 3-cyclobutyl-7-{[4-(1-pyrrolidinylcarbonyl)phenyl]methyl}-2,3,4,5-tetrahydro-1H-3-benzazepine], the Ki is less than 3.16 nM.

`O=C(NC1CCOCC1)c1ccc(Cc2ccc3c(c2)CCN(C2CCC2)CC3)cn1` [Example E55, 5-[(3-cyclobutyl-2,3,4,5-tetrahydro-1H-3-benzazepin-7-yl)methyl]-N-(tetrahydro-2H-pyran-4-yl)-2-pyridinecarboxamide]: the Ki was less than 3.16 nM.

For the compound `O=C1CCCN1c1ccc(Cc2ccc3c(c2)CCN(C2CCC2)CC3)nc1` [Example E5, 1-{6-[(3-cyclobutyl-2,3,4,5-tetrahydro-1H-3-benzazepin-7-yl)methyl]-3-pyridinyl}-2-pyrrolidinone], the Ki is less than 3.16 nM.

Consider `CNC(=O)c1ccc(Cc2ccc3c(c2)CCN(C2CCC2)CC3)nc1` [Example E42, 6-[(3-cyclobutyl-2,3,4,5-tetrahydro-1H-3-benzazepin-7-yl)methyl]-N-methyl-3-pyridinecarboxamide], for which the Ki was less than 3.16 nM.

The values above are taken from US20070208005A1, “TETRAHYDROBENZAZEPINES AS ANTAGONISTS AND/OR REVERSE AGONISTS OF THE HISTAMINE H3 RECEPTOR” (priority 2004, published 2007).
